The results in this text go back to article PMC9282634, “High-Throughput Crystallography Reveals Boron-Containing Inhibitors of a Penicillin-Binding Protein with Di- and Tricovalent Binding Modes” (Journal of Medicinal Chemistry, 2021).

For assay [1], the target named is T1, PBP3 (PaPBP3) (Pseudomonas aeruginosa, UniProt G3XD46).
T1 construct: gene ftsI; residues 50–579
Kind of assay: biochemical. The arrangement: BOCILLIN FL fluorescence anisotropy, residual PBP3 binding after 1 h pre-incubation with compound. To be noted: read-out: Residual Activity by BOCILLIN FL FA (%). The protocol:
Unless otherwise stated, assays were run in triplicate using a 60 nM purified protein (see above), 30 nM BOCILLIN FL in pH 7 100 mM sodium phosphate buffer, with 0.01% Triton to reduce promiscuous ligand binding[23] and reduce binding of the protein to the plate. Assays were run in triplicate in a volume of 50 μL, in black, flat-bottom, 384-well microplates (Grenier Bio-One, Austria) at 30 °C. The change in FA was measured using a ClarioStar plate reader (BMG Labtech) with polarized filters at excitation: 482–16, emission: F: 530–4, and calculated using MARS software v3.32 (BMG Labtech) using the equation [drawing 1] where Fpara is the fluorescence intensity parallel to the excitation plane and Fperp is fluorescence intensity perpendicular to the excitation plane. Residual activities were determined by pre-incubating the test compound (1024 μM) and protein for 1 h at 30 °C before the reaction was initiated by the addition of BOCILLIN FL. The change in FA after 30 min was compared to the uninhibited control to determine the residual activity. In order to calculate Ki, the compound (at 11 concentrations: 1–1024 μM) and BOCILLIN FL were mixed and the reaction was initiated by the addition of PBP. Also included in the model were progress curves of nine concentrations of PBP (40–110 nM). Inhibition plots with meropenem and ceftazidime were done to ensure the correct parameters for BOCILLIN FL binding were used. Progress curves were analyzed with KinTek, USA, as described;[52],[69] reported errors represent the standard error. The acylation of a PBP by BOCILLIN FL (Figure S1) can be described by a simple one-step model.[52] However, unlike the previous studies, we found it was necessary to include a term (k2) to account for the deacylation of BOCILLIN FL to release a hydrolyzed product (Figure S1). The fluorescence intensity was constant throughout the reaction. Inhibitor binding was modeled as a reversible reaction to form the enzyme–inhibitor complex (Figure S1). Ki was calculated as the ratio of the off-rate koff to the on-rate kon (Figure S1). Table 1 Residual Activities and Kis of Compounds Tested in the BOCILLIN FL Competition Assay for Binding to PaPBP3 and Residual Activities Measured in S2d Turnover Assays ^a a For both BOCILLIN FL FA and S2d assays, residual activities in the presence of a 1 mM inhibitor are a percentage of the activity of the untreated control. Errors are standard errors (n = 3) from independent measurements. b Residual activity measured at 100 μM due to solubility issues at 1 mM. Ki, calculated with 11 concentrations of each compound and determined using global fitting in Kintek Global Explorer.[52],[59]

The target in assay [2] is T1, PBP3 (PaPBP3). The assay can be described thus: biochemical. To be noted: read-out: Residual Activity by S2d Turnover (%). Further details: S2d thioester turnover with DTNB, absorbance 412 nm, residual activity after 1 h pre-incubation. How it is done:
Residual activities were measured by the ability of a potential inhibitor to hinder hydrolysis of the substrate analogue S2d (2-((benzoyl-D-alanyl)thio)acetic acid) turnover by PaPBP3 as described for other PBPs.[4],[24],[53],[54] Assays were conducted in 50 μL in a 384-well, clear-bottom, black-walled microplate (Greiner Bio-One). PaPBP3 (400 nM) was incubated with 2 mM of each compound for 1 h at 30 °C in 100 mM sodium phosphate, pH 7, supplemented with 0.01% (v/v) triton. A solution of 5,5′-dithiobis-(2-nitrobenzoic acid) and S2d diluted in the same buffer (to give a final concentration in the assay of 1 mM for both reagents) was added to each well to initiate the reaction. The final concentration of protein was 200 nM and the final inhibitor concentration was 1 mM. A ClarioStar plate reader (BMG Labtech) was used to follow the reaction by observing the change in absorbance at 412 nm at 30 °C. […] The initial rate of S2d turnover was calculated using GraphPad prism (Prism 8 for macOS, GraphPad Software LLC) and the standard error calculated from three independent technical replicates. The rate of non-enzymatic S2d hydrolysis was subtracted from each rate to find the corrected rate. For each compound, the ratio of the corrected rate to the untreated control corrected rate was expressed as a percentage to give the residual activity. [drawing 2] Table 1 Residual Activities and Kis of Compounds Tested in the BOCILLIN FL Competition Assay for Binding to PaPBP3 and Residual Activities Measured in S2d Turnover Assays ^a a For both BOCILLIN FL FA and S2d assays, residual activities in the presence of a 1 mM inhibitor are a percentage of the activity of the untreated control. Errors are standard errors (n = 3) from independent measurements. b Residual activity measured at 100 μM due to solubility issues at 1 mM. Ki, calculated with 11 concentrations of each compound and determined using global fitting in Kintek Global Explorer.[52],[59]

Assay [3] deals with T1, PBP3 (PaPBP3). Kind of assay: crystal structure; BOCILLIN FL fluorescence anisotropy competition (Ki). Format: biochemical. A general note: Fluorescence polarisation rises when a labelled molecule tumbles more slowly, as on binding a larger partner.
The target in assay [4] is T1, PBP3 (PaPBP3). Kind of assay: biochemical. To be noted: BOCILLIN FL competition. Further details: BOCILLIN FL competition fluorescence anisotropy, progress curves globally fitted in KinTek to reversible one-step model. The protocol:
Unless otherwise stated, assays were run in triplicate using a 60 nM purified protein (see above), 30 nM BOCILLIN FL in pH 7 100 mM sodium phosphate buffer, with 0.01% Triton to reduce promiscuous ligand binding[23] and reduce binding of the protein to the plate. Assays were run in triplicate in a volume of 50 μL, in black, flat-bottom, 384-well microplates (Grenier Bio-One, Austria) at 30 °C. The change in FA was measured using a ClarioStar plate reader (BMG Labtech) with polarized filters at excitation: 482–16, emission: F: 530–4, and calculated using MARS software v3.32 (BMG Labtech) using the equation [drawing 1] where Fpara is the fluorescence intensity parallel to the excitation plane and Fperp is fluorescence intensity perpendicular to the excitation plane. Residual activities were determined by pre-incubating the test compound (1024 μM) and protein for 1 h at 30 °C before the reaction was initiated by the addition of BOCILLIN FL. […] Progress curves were analyzed with KinTek, USA, as described;[52],[69] reported errors represent the standard error. […] The fluorescence intensity was constant throughout the reaction. […] Ki was calculated as the ratio of the off-rate koff to the on-rate kon (Figure S1). 1–15 were screened for PaPBP3 inhibition at 1 mM using an established fluorescence anisotropy (FA) assay.[52] […]

SMILES strings stand for the structures. Read-outs that look alike come from different tables or passages of the source. Bounds are passed on as bounds.

T1 sequence (G3XD46 50-579): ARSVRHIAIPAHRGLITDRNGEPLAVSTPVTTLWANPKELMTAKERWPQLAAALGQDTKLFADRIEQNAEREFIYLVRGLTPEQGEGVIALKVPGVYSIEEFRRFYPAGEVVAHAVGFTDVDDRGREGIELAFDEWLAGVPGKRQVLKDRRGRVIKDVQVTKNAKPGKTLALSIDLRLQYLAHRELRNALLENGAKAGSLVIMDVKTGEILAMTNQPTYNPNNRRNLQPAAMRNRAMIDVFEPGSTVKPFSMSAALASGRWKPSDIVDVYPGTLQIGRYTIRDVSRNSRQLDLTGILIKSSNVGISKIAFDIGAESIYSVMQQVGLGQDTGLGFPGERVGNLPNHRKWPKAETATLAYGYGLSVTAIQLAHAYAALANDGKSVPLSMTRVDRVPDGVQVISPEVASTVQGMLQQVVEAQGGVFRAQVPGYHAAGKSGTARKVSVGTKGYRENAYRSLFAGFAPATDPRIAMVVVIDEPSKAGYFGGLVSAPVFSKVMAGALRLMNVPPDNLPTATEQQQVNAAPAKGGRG

With `COC(=O)[C@H](NC(=O)c1ccc2c(c1)B(O)OC2)c1ccccc1` [compound 7], the remaining activity at 1000 µM on PBP3 (PaPBP3) [1] and on PBP3 (PaPBP3) [2] was over 90% throughout.
As a reminder, the Ki is a dissociation constant, usually derived from enzyme kinetics or from competition with a known ligand. Regarding `CN1CCN(C(=O)CNC(=O)c2ccc3c(c2)B(O)OC3CC(=O)O)CC1=O` (centres unmarked) [compound 13, 13], the remaining activity at 1000 µM amounted to 42 ± 6% at PBP3 (PaPBP3) [1] and 47.5 ± 0.6% on PBP3 (PaPBP3) [2]. Moreover, on PBP3 (PaPBP3) [3], the Ki is 172 ± 3 µM.
In the case of `NC(=O)[C@@H](Cc1ccccc1)NC(=O)c1ccc2c(c1)B(O)OC2` [compound 6], the remaining activity at 1000 µM at PBP3 (PaPBP3) [1] and on PBP3 (PaPBP3) [2] was over 90% in each case.
Turning to `O=C1CN(C(=O)[C@@H](Cc2ccccc2)NC(=O)c2ccc3c(c2)B(O)OC3)CCN1` [compound 11], the remaining activity at 1000 µM came out at 84 ± 1% on PBP3 (PaPBP3) [1] and 80.9 ± 1.3% on PBP3 (PaPBP3) [2].
As for `O=C(O)C[C@@H]1CC[C@H](NC(=O)Cc2cccs2)B(O)O1` [vaborbactam], the remaining activity at 1000 µM at PBP3 (PaPBP3) [1] came out at 54 ± 5%; on PBP3 (PaPBP3) [2], 75.8 ± 0.7%. The Ki on PBP3 (PaPBP3) [4] stood at 201 ± 2.3 µM.
As for `O=C(O)c1ccc2c(c1)B(O)OC2` [compound 3], the results for the remaining activity at 1000 µM on PBP3 (PaPBP3) [1] and on PBP3 (PaPBP3) [2] were 75 ± 1% and 57.8 ± 0.6%, respectively.
As for `NC(=O)[C@H](NC(=O)c1ccc2c(c1)B(O)OC2CC(=O)O)c1ccccc1` (some centres unmarked) [compound 12, 12], the results for the remaining activity at 1000 µM on PBP3 (PaPBP3) [1] and on PBP3 (PaPBP3) [2] were 16 ± 6% and 19.6 ± 0.4%, respectively. Besides, the affinity at PBP3 (PaPBP3) [3] corresponds to a Ki of 73.9 ± 0.8 µM.
For `CNC(=O)CNC(=O)c1ccc2c(c1)B(O)OC2` [compound 5], the remaining activity at 1000 µM at PBP3 (PaPBP3) [1] and at PBP3 (PaPBP3) [2] was over 90% in each case.
At PBP3 (PaPBP3) [3], `O=C(O)CC1OB(O)c2ccc(OCc3ccccc3)cc21` (centres unmarked) [compound 15, 2-(5-(Benzyloxy)-1-hydroxy-1,3-dihydrobenzo[c][1,2]oxaborol-3-yl)acetic Acid] had a Ki of 78.1 ± 0.9 µM.
